Results on 22 compounds are retold here after patent publication US7741327B2 (Hoffmann-La Roche Inc., priority 2008, dated 2010).

For this assay, the target named is T1, Recombinant human liver GK1 (GST-GK) (Homo sapiens, UniProt P35557).
T1 construct: made in house; host or cells: E. coli
T1 sequence (P35557 1-466 isoform P35557-2): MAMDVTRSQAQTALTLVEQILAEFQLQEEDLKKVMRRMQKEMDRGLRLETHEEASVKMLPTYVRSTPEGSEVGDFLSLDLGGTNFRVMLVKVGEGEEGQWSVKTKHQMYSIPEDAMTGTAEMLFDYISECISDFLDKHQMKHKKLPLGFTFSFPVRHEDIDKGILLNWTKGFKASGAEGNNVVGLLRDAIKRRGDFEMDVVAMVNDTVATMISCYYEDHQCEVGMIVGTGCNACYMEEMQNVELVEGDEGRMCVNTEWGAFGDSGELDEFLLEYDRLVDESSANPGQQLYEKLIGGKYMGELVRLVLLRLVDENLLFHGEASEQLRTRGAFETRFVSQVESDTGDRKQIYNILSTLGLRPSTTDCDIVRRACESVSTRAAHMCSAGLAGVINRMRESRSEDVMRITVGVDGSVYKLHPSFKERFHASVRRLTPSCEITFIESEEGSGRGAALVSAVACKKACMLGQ
The assay can be described thus: In vitro glucokinase activity (G6PDH-coupled NADH assay). The assay is classed as biochemical. Particulars: 30° C., 5 mM D-glucose, 10% DMSO. The essentials:
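Activation measured as the rate of OD340 rise from G6PDH-coupled NADH production, relative to 10% DMSO control, reported as SC1.5 (concentration for 50% activity increase). Conditions: 30° C, pH 7.1 Hepes, 5 mM glucose, 1 mM ATP, purified recombinant GST-human GK1, compound preincubated 10 min before enzyme addition.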

On to `COC(=O)c1ccc(NC(=O)[C@H](CC2CCCCC2)N2CC(Oc3c(F)ccc(Cl)c3F)=CC2=O)nc1` [Example 73, 6-{(S)-2-[4-(3-Chloro-2,6-difluoro-phenoxy)-2-oxo-2,5-dihydro-pyrrol-1-yl]-3-cyclohexyl-propionylamino}-nicotinic acid methyl ester], for which the “SC1.5 (concentration of activator that produced a 50% increase in the activity of GK)” value amounted to 0.036 µM. The value for `O=C(O)c1ccc(NC(=O)[C@H](CC2CCCCC2)N2CC(Oc3c(F)ccc(Cl)c3F)=CC2=O)nc1` [Example 74, 6-{(S)-2-[4-(3-Chloro-2,6-difluoro-phenoxy)-2-oxo-2,5-dihydro-pyrrol-1-yl]-3-cyclohexyl-propionylamino}-nicotinic acid] was 0.055 µM; that for `Cl.Cn1ccc(NC(=O)[C@H](CC2CCCCC2)N2CC(Oc3c(F)ccc(Cl)c3F)=CC2=O)n1` [Example 75, (S)-2-[4-(3-Chloro-2,6-difluoro-phenoxy)-2-oxo-2,5-dihydro-pyrrol-1-yl]-3-cyclohexyl-N-(1-methyl-1H-pyrazol-3-yl)-propionamide Hydrochloride] was 0.037 µM; that for `Cl.O=C(Nc1ccn(C[C@@H](O)CO)n1)[C@H](CC1CCCCC1)N1CC(Oc2c(F)ccc(Cl)c2F)=CC1=O` [Example 76, (S)-2-[4-(3-Chloro-2,6-difluoro-phenoxy)-2-oxo-2,5-dihydro-pyrrol-1-yl]-3-cyclohexyl-N-[1-((R)-2,3-dihydroxy-propyl)-1H-pyrazol-3-yl]-propionamide Hydrochloride] was 0.017 µM. The value for `CC(C)C[C@@H](C(=O)Nc1ccn(C)n1)N1CC(Oc2cccc(Cl)c2Cl)=CC1=O.Cl` [Example 78, (S)-2-[4-(2,3-Dichloro-phenoxy)-2-oxo-2,5-dihydro-pyrrol-1-yl]-4-methyl-pentanoic acid (1-methyl-1H-pyrazol-3-yl)-amide Hydrochloride] was 0.4 µM; that for `CC(C)C[C@@H](C(=O)Nc1ccn(C[C@@H]2COC(C)(C)O2)n1)N1CC(Oc2cccc(Cl)c2Cl)=CC1=O` [Example 79, (S)-2-[4-(2,3-Dichloro-phenoxy)-2-oxo-2,5-dihydro-pyrrol-1-yl]-4-methyl-pentanoic acid [1-((R)-2,2-dimethyl-[1,3]dioxolan-4-yl-methyl)-1H-pyrazol-3-yl]-amide] was 0.682 µM. For `CC(C)C[C@@H](C(=O)Nc1ccn(C[C@@H](O)CO)n1)N1CC(Oc2cccc(Cl)c2Cl)=CC1=O.Cl` [Example 80, (S)-2-[4-(2,3-Dichloro-phenoxy)-2-oxo-2,5-dihydro-pyrrol-1-yl]-4-methyl-pentanoic acid [1-((R)-2,3-dihydroxy-propyl)-1H-pyrazol-3-yl]-amide Hydrochloride] the value was 0.211 µM; for `CCOc1ccccc1OC1=CC(=O)N([C@@H](CC(C)C)C(=O)Nc2ccn(CC(C)(C)O)n2)C1.Cl` [Example 81, (S)-2-[4-(2-ethoxy-phenoxy)-2-oxo-2,5-dihydro-pyrrol-1-yl]-4-methyl pentanoic acid [1-(2-hydroxy-2-methyl-propyl)-1H-pyrazol-3-yl]-amide hydrochloride], 0.932 µM; for `CCOc1ccccc1OC1=CC(=O)N([C@@H](CC(C)C)C(=O)Nc2ccn(C)n2)C1.Cl` [Example 82, (S)-2-[4-(2-Ethoxy-phenoxy)-2-oxo-2,5-dihydro-pyrrol-1-yl]-4-methyl-pentanoic acid (1-methyl-1H-pyrazol-3-yl)-amide Hydrochloride], 2.591 µM. For the compound `CCOc1ccccc1OC1=CC(=O)N([C@@H](CC(C)C)C(=O)Nc2ccn(C[C@@H]3COC(C)(C)O3)n2)C1` [Example 83, (S)-2-[4-(2-Ethoxy-phenoxy)-2-oxo-2,5-dihydro-pyrrol-1-yl]-4-methyl-pentanoic acid [1-((R)-2,2-dimethyl-[1,3]dioxolan-4-yl-methyl)-1H-pyrazol-3-yl]-amide], the “SC1.5 (concentration of activator that produced a 50% increase in the activity of GK)” value came to 8.055 µM. For `CCOc1ccccc1OC1=CC(=O)N([C@@H](CC(C)C)C(=O)Nc2ccn(C[C@@H](O)CO)n2)C1.Cl` [Example 84, (S)-2-[4-(2-Ethoxy-phenoxy)-2-oxo-2,5-dihydro-pyrrol-1-yl]-4-methyl-pentanoic acid [1-((R)-2,3-dihydroxy-propyl)-1H-pyrazol-3-yl]-amide Hydrochloride] the value was 1.312 µM; for `CCOc1ccccc1OC1=CC(=O)N([C@@H](CC(C)C)C(=O)Nc2ccn(CCO)n2)C1.Cl` [Example 85, (S)-2-[4-(2-Ethoxy-phenoxy)-2-oxo-2,5-dihydro-pyrrol-1-yl]-4-methyl-pentanoic acid [1-(2-hydroxy-ethyl)-1H-pyrazol-3-yl]-amide Hydrochloride], 1.998 µM; for `CC1(C)OC[C@@H](Cn2ccc(NC(=O)[C@H](CC3CCCC3)N3CC(Oc4c(F)cccc4F)=CC3=O)n2)O1` [Example 87, (S)-3-Cyclopentyl-2-[4-(2,6-difluoro-phenoxy)-2-oxo-2,5-dihydro-pyrrol-1-yl]-N-[1-((R)-2,2-dimethyl-[1,3]dioxolan-4-yl-methyl)-1H-pyrazol-3-yl]-propionamide], 0.093 µM.

Consider `O=C(Nc1ccn(CCO)n1)[C@H](CC1CCCC1)N1CC(Oc2c(F)cccc2F)=CC1=O` [Example 89, (S)-3-Cyclopentyl-2-[4-(2,6-difluoro-phenoxy)-2-oxo-2,5-dihydro-pyrrol-1-yl]-N-[1-(2-hydroxy-ethyl)-1H-pyrazol-3-yl]-propionamide], for which the “SC1.5 (concentration of activator that produced a 50% increase in the activity of GK)” value came out at 0.05 µM. With `Cl.Cn1ccc(NC(=O)[C@H](CC2CCCCC2)N2CC(Oc3ccccc3C(F)(F)F)=CC2=O)n1` [Example 90, (S)-3-Cyclohexyl-N-(1-methyl-1H-pyrazol-3-yl)-2-[2-oxo-4-(2-trifluoromethyl-phenoxy)-2,5-dihydro-pyrrol-1-yl]-propionamide Hydrochloride], the “SC1.5 (concentration of activator that produced a 50% increase in the activity of GK)” value is 0.088 µM. The value for `COCCn1ccc(NC(=O)[C@H](CC2CCCCC2)N2CC(Oc3ccccc3C(F)(F)F)=CC2=O)n1.Cl` [Example 91, (S)-3-Cyclohexyl-N-[1-(2-methoxy-ethyl)-1H-pyrazol-3-yl]-2-[2-oxo-4-(2-trifluoromethyl-phenoxy)-2,5-dihydro-pyrrol-1-yl]-propionamide Hydrochloride] was 0.039 µM; that for `CC(C)(O)Cn1ccc(NC(=O)[C@H](CC2CCCCO2)N2CC(Oc3cccc(Cl)c3Cl)=CC2=O)n1` (stereo partly drawn) [Example 92, (S)-2-[4-(2,3-Dichloro-phenoxy)-2-oxo-2,5-dihydro-pyrrol-1-yl]-N-[1-(2-hydroxy-2-methyl-propyl)-1H-pyrazol-3-yl]-3-(tetrahydro-pyran-2-yl)-propionamide] was 0.161 µM. For `CC(C)(O)Cn1ccc(NC(=O)[C@H](CC2CCCCO2)N2CC(Oc3c(F)cccc3F)=CC2=O)n1` (stereo partly drawn) [Example 93, (S)-2-[4-(2,6-Difluoro-phenoxy)-2-oxo-2,5-dihydro-pyrrol-1-yl]-N-[1-(2-hydroxy-2-methyl-propyl)-1H-pyrazol-3-yl]-3-(tetrahydro-pyran-2-yl)-propionamide] the value was 0.477 µM.

With `CCO[C@H](C)C[C@@H](C(=O)Nc1ccn(CC(C)(C)O)n1)N1CC(Oc2cccc(Cl)c2Cl)=CC1=O` [Example 94, (2S,4R)-2-[4-(2,3-Dichloro-phenoxy)-2-oxo-2,5-dihydro-pyrrol-1-yl]-4-ethoxy-pentanoic acid [1-(2-hydroxy-2-methyl-propyl)-1H-pyrazol-3-yl]-amide], the “SC1.5 (concentration of activator that produced a 50% increase in the activity of GK)” value came out at 0.772 µM. The value for `CCO[C@@H](C)C[C@@H](C(=O)Nc1ccn(CC(C)(C)O)n1)N1CC(Oc2cccc(Cl)c2Cl)=CC1=O` [Example 95, (2S,4S)-2-[4-(2,3-Dichloro-phenoxy)-2-oxo-2,5-dihydro-pyrrol-1-yl]-4-ethoxy-pentanoic acid [1-(2-hydroxy-2-methyl-propyl)-1H-pyrazol-3-yl]-amide] was 0.703 µM. For `CC(C)C[C@@H](C(=O)Nc1ccn(C[C@@H](O)CO)n1)N1CC(Oc2cccc(C(F)(F)F)c2)=CC1=O` [Example 96, (S)-4-Methyl-2-[2-oxo-4-(3-trifluoromethyl-phenoxy)-2,5-dihydro-pyrrol-1-yl]-pentanoic acid [1-((R)-2,3-dihydroxy-propyl)-1H-pyrazol-3-yl]-amide] the value was 0.97 µM; for `CC(C)C[C@@H](C(=O)Nc1ccn(C[C@@H](O)CO)n1)N1CC(Oc2cccc(Cl)c2F)=CC1=O` [Example 97, (S)-2-[4-(3-Chloro-2-fluoro-phenoxy)-2-oxo-2,5-dihydro-pyrrol-1-yl]-4-methyl-pentanoic acid [1-((R)-2,3-dihydroxy-propyl)-1H-pyrazol-3-yl]-amide], 0.168 µM.
